Experimental data: patent US6737383B1, “Herbicidal oxadiazolidines” (priority 1999, dated 2004)

What was measured:
bamyardgrass = test: Test B flood test barnyardgrass; type: in vivo, Echinochloa crus-galli
Method in brief: (§1)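 Flood test on plants grown to the 2-leaf stage; treated plants kept in greenhouse twelve to sixteen days, then visually rated against controls on a 0 (no effect) to 10 (complete control) scale.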

rape = test: Test B pre/postemergence rape; type: in vivo, Brassica napus
Method in brief: (§2)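 Herbicidal effect was estimated by eye on a ten-point control scale after plants spent twelve to sixteen days in a greenhouse following soil or foliar treatment. Foliar sprays targeted plants at one to four leaves; all doses were formulated in a non-phytotoxic solvent with surfactant.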

blackgrass = test: Test B pre/postemergence blackgrass; type: in vivo, Alopecurus myosuroides
Method in brief: as §2

corn = test: Test B pre/postemergence corn; type: in vivo, Zea mays
Method in brief: as §2

velvetleaf = test: Test B pre/postemergence velvetleaf; type: in vivo, Abutilon theophrasti
Method in brief: as §2

giant foxtail = test: Test B pre/postemergence giant foxtail; type: in vivo, Setaria faberii
Method in brief: as §2

rice = test: Test B flood test rice; type: in vivo, Oryza sativa
Method in brief: as §1

purple nutsedge = test: Test B pre/postemergence purple nutsedge; type: in vivo, Cyperus rotundus
Method in brief: as §2

cocklebur = test: Test B pre/postemergence cocklebur; type: in vivo, Xanthium strumarium
Method in brief: as §2

sugar beet = test: Test B pre/postemergence sugar beet; type: in vivo, Beta vulgaris
Method in brief: as §2

bedstraw = test: Test B pre/postemergence bedstraw; type: in vivo, Galium aparine
Method in brief: as §2

pigweed = test: Test B pre/postemergence pigweed; type: in vivo, Amaranthus retroflexus
Method in brief: as §2

duck salad = test: Test B flood test duck salad; type: in vivo, Heteranthera limosa
Method in brief: as §1

surinam grass = test: Test B pre/postemergence surinam grass; type: in vivo, Brachiaria decumbens
Method in brief: as §2

morningglory = test: Test B pre/postemergence morningglory; type: in vivo, Ipomoea hederacea
Method in brief: as §2

[1] = Rate 31 g/ha, Pre-emergence section (flood test species), scale 0 to 10
[2] = Rate 62 g/ha, headed Pre-emergence (flood test species), scale 0 to 10 (0 no effect, 10 complete control)
[3] = Rate 125 g/ha, Pre-emergence, flood test species, scale 0 to 10 where 0 is no effect and 10 is complete control
[4] = Rate 250 g/ha, Pre-emergence, flood-test species, scale 0 to 10, 0 is no effect, 10 is complete control
[5] = Preemergence, Rate 31 g/ha, visual rating, scale 0 to 10 (0 no effect, 10 complete control)
[6] = Preemergence, Rate 62 g/ha, scale of 0 to 10 where 0 is no effect and 10 is complete control
[7] = Preemergence, Rate 250 g/ha, scale of 0 to 10 where 0 is no effect and 10 is complete control
[8] = Rate 31 g/ha, Postemergence, scale 0 to 10
[9] = Rate 62 g/ha, Postemergence, scale of 0 to 10 where 0 is no effect and 10 is complete control
[10] = Rate 125 g/ha, Postemergence, scale 0 to 10
[11] = Rate 125 g/ha, Preemergence, scale of 0 to 10 where 0 is no effect and 10 is complete control

CC(=O)Cn1c(=O)on(C(=O)N(c2ccc(F)cc2)C(C)C)c1=O [Compound 217]
Barnyardgrass plant response rating (bamyardgrass; [1]): 0
Barnyardgrass plant response rating (bamyardgrass; [2]): 0
Barnyardgrass plant response rating (bamyardgrass; [3]): 0
Barnyardgrass plant response rating (bamyardgrass; [4]): 0
Rape plant response rating (rape; [5]): 0
Rape plant response rating (rape; [6]): 0
Rape plant response rating (rape; [7]): 4
Rape plant response rating (rape; [8]): 0
Rape plant response rating (rape; [9]): 0
Rape plant response rating (rape; [10]): 0
Rape plant response rating (rape; [11]): 0
Plant response rating (0 to 10; 0 is no effect, 10 is complete control), Rape (rape; Rate 250 g/ha, Postemergence): 0
Blackgrass plant response rating (blackgrass; [5]): 0
Blackgrass plant response rating (blackgrass; [6]): 6
Blackgrass plant response rating (blackgrass; [7]): 8
Blackgrass plant response rating (blackgrass; [8]): 0
Blackgrass plant response rating (blackgrass; [9]): 3
Blackgrass plant response rating (blackgrass; [10]): 6
Blackgrass plant response rating (blackgrass; [11]): 6
Plant response rating (0 to 10; 0 is no effect, 10 is complete control), Blackgrass (blackgrass; Rate 250 g/ha, Postemergence): 6
Corn plant response rating (corn; [5]): 0
Corn plant response rating (corn; [6]): 0
Corn plant response rating (corn; [7]): 0
Corn plant response rating (corn; [8]): 0
Corn plant response rating (corn; [9]): 0
Corn plant response rating (corn; [10]): 0
Corn plant response rating (corn; [11]): 0
Plant response rating (0 to 10; 0 is no effect, 10 is complete control), Corn (corn; Rate 250 g/ha, Postemergence): 0
Velvetleaf plant response rating (velvetleaf; [5]): 0
Velvetleaf plant response rating (velvetleaf; [6]): 0
Velvetleaf plant response rating (velvetleaf; [7]): 5
Velvetleaf plant response rating (velvetleaf; [9]): 0
Velvetleaf plant response rating (velvetleaf; [10]): 0
Velvetleaf plant response rating (velvetleaf; [11]): 1
Plant response rating (0 to 10; 0 is no effect, 10 is complete control), Velvetleaf (velvetleaf; Rate 250 g/ha, Postemergence): 0
Giant foxtail plant response rating (giant foxtail; [5]): 3
Giant foxtail plant response rating (giant foxtail; [6]): 6
Giant foxtail plant response rating (giant foxtail; [7]): 10
Giant foxtail plant response rating (giant foxtail; [8]): 0
Giant foxtail plant response rating (giant foxtail; [9]): 1
Giant foxtail plant response rating (giant foxtail; [10]): 2
Giant foxtail plant response rating (giant foxtail; [11]): 8
Plant response rating (0 to 10; 0 is no effect, 10 is complete control), Giant foxtail (giant foxtail; Rate 250 g/ha, Postemergence): 7
Rice plant response rating (rice; [1]): 0
Rice plant response rating (rice; [2]): 0
Rice plant response rating (rice; [3]): 0
Rice plant response rating (rice; [4]): 0
Nutsedge plant response rating (purple nutsedge; [5]): 0
Nutsedge plant response rating (purple nutsedge; [6]): 0
Nutsedge plant response rating (purple nutsedge; [7]): 0
Nutsedge plant response rating (purple nutsedge; [8]): 0
Nutsedge plant response rating (purple nutsedge; [9]): 0
Nutsedge plant response rating (purple nutsedge; [10]): 0
Nutsedge plant response rating (purple nutsedge; [11]): 0
Plant response rating (0 to 10; 0 is no effect, 10 is complete control), Nutsedge (purple nutsedge; Rate 250 g/ha, Postemergence): 0
Cocklebur plant response rating (cocklebur; [5]): 0
Cocklebur plant response rating (cocklebur; [6]): 0
Cocklebur plant response rating (cocklebur; [7]): 0
Cocklebur plant response rating (cocklebur; [8]): 0
Cocklebur plant response rating (cocklebur; [9]): 0
Cocklebur plant response rating (cocklebur; [10]): 0
Cocklebur plant response rating (cocklebur; [11]): 0
Plant response rating (0 to 10; 0 is no effect, 10 is complete control), Cocklebur (cocklebur; Rate 250 g/ha, Postemergence): 0
Sugarbeets plant response rating (sugar beet; [5]): 0
Sugarbeets plant response rating (sugar beet; [6]): 0
Sugarbeets plant response rating (sugar beet; [7]): 0
Sugarbeets plant response rating (sugar beet; [9]): 0
Sugarbeets plant response rating (sugar beet; [10]): 0
Sugarbeets plant response rating (sugar beet; [11]): 0
Plant response rating (0 to 10; 0 is no effect, 10 is complete control), Sugarbeets (sugar beet; Rate 250 g/ha, Postemergence): 0
Bedstraw plant response rating (bedstraw; [5]): 0
Bedstraw plant response rating (bedstraw; [6]): 0
Bedstraw plant response rating (bedstraw; [7]): 0
Bedstraw plant response rating (bedstraw; [8]): 0
Bedstraw plant response rating (bedstraw; [9]): 0
Bedstraw plant response rating (bedstraw; [10]): 0
Bedstraw plant response rating (bedstraw; [11]): 0
Plant response rating (0 to 10; 0 is no effect, 10 is complete control), Bedstraw (bedstraw; Rate 250 g/ha, Postemergence): 0
Redroot pigweed plant response rating (pigweed; [5]): 0
Redroot pigweed plant response rating (pigweed; [6]): 0
Redroot pigweed plant response rating (pigweed; [7]): 10
Redroot pigweed plant response rating (pigweed; [8]): 0
Redroot pigweed plant response rating (pigweed; [9]): 0
Redroot pigweed plant response rating (pigweed; [10]): 0
Redroot pigweed plant response rating (pigweed; [11]): 5
Plant response rating (0 to 10; 0 is no effect, 10 is complete control), Redroot pigweed (pigweed; Rate 250 g/ha, Postemergence): 0
Ducksalad plant response rating (duck salad; [1]): 0
Ducksalad plant response rating (duck salad; [2]): 0
Ducksalad plant response rating (duck salad; [3]): 0
Ducksalad plant response rating (duck salad; [4]): 0
B. signalgrass plant response rating (surinam grass; [5]): 0
B. signalgrass plant response rating (surinam grass; [6]): 0
B. signalgrass plant response rating (surinam grass; Preemergence, Rate 250 g/ha, scale 0 to 10, 0 is no effect, 10 is complete control): 0
B. signalgrass plant response rating (surinam grass; [8]): 0
B. signalgrass plant response rating (surinam grass; [9]): 0
B. signalgrass plant response rating (surinam grass; Rate 125 g/ha, Postemergence, scale 0 (no effect) to 10 (complete control)): 7
B. signalgrass plant response rating (surinam grass; [11]): 0
Plant response rating (0 to 10; 0 is no effect, 10 is complete control), B. signalgrass (surinam grass; Rate 250 g/ha, Postemergence): 7
Morningglory plant response rating (morningglory; [5]): 0
Morningglory plant response rating (morningglory; [6]): 0
Morningglory plant response rating (morningglory; [7]): 0
Morningglory plant response rating (morningglory; [8]): 0
Morningglory plant response rating (morningglory; [9]): 0
Morningglory plant response rating (morningglory; [10]): 0
Morningglory plant response rating (morningglory; [11]): 0
Plant response rating (0 to 10; 0 is no effect, 10 is complete control), Morningglory (morningglory; Rate 250 g/ha, Postemergence): 0
